In patent US5935597A, “Drug delivery devices and methods for treatment of viral and microbial infections and wasting syndromes” (Cryopreservation Technologies CC, priority 1995, dated 1999):

Columns and labels:
[1] = cited from earlier work
HIV = conditions: certain cultured cell lines; cited from earlier work
[2] = Example 7: plasma/blood DMF level in HIV-1 patients treated with DMF dermal patches; type: in vivo; conditions: human, blood, topical or ocular, 14000 mg
Method: Two skin patches were applied to different parts of the patient's body, for example to the forearm. […] The gel served to prevent leakage of liquid DMF from the patches. […] For a patient weighing about 60 kg, an amount of about 14 g over a period of 12 hours is required to produce a level of 100 ppm. Based on studies by Marz and Nohova the surface area required to absorb this amount in about 127,2 cm^2. […] Absorption capability varies from patient to patient depending on factors such as skin-type and skin thickness.
Each patch was applied for a period of 12 hours, either once per week over a period of 12 weeks, or twice per week over a period of 6 weeks.
Daily full clinical and psychological evaluations were also conducted.

[3] = Example 8 pilot study: body weight; type: in vivo, human
Method: A pilot study was conducted to evaluate the efficacy of transdermal DMF in the treatment of patients infected with HIV. Informed consent was obtained from each patient. Seropositive status was verified by Western blot using a commercial kit for detecting antibodies to p24 (Abbott Diagnostics) and the presence of HIV-1 was documented by quantitative PCR using a commercial kit (Roche Amplicor).
Dermal patches 9 cm in diameter were used within 12 hours of manufacture. […] The patches were visually inspected to verify the absence of leakage and were weighed on an analytical balance to verify less than 10% deviation from a total mass of 8.153 g. The patches were applied to the skin of the forearm and secured with Elastoplast™ bandages. Either one or two patches were used for the initial dose, as determined from the predicted skin transfer rate of 9.4 mg/cm^2 /hr and the patient's body weight.
A staged dose of DMF was used, with two-hourly blood and urine sampling to determine peak plasma DMF levels. […] Initial evaluation included daily determination of:
a) vital signs and body weight;

[4] = test system: Human Herpes Virus 6 (HHV-6); conditions: certain cultured cell lines; cited from earlier work

## CN(C)C=O [DMF, N,N'-dimethylformamide]
[1]; dermal, oral and inhalation
  acute toxicity: low acute dermal, oral and inhalation toxicity
[1]; in vivo
  hepatic toxicity: reversible hepatic damage
  mutagenicity and carcinogenicity: not thought to be a mutagen or a carcinogen
  skin and eye irritation: mild to moderate skin and eye irritant
  skin sensitization: no indication of skin sensitizing properties
  teratogenicity: teratogenic
HIV
  in vitro replication of HIV: inhibit in vitro replication of HIV
[2]
  concentration at 12 h: 100 µg/mL
[3]; Patient 1, after 7 weeks, from 74.2
  body weight: 100 kg
[3]; Patient 2, after 9 weeks, from 58.4
  body weight: 63.0 kg
[3]; Patient 3, after 10 weeks, from 81.9
  body weight: 96.0 kg
[3]; Patient 4, after 18 weeks, from 81.5
  body weight: 90.4 kg
[3]; Patient 5, after 19 weeks, from 75.4
  body weight: 84.6 kg
[3]; Patient 6, after 5 weeks, from 56.0
  body weight: 58.0 kg
[3]; Patient 7, after 9 treatments, from 46.5
  body weight: 49.0 kg
[3]; Patient 8, after 8 weeks, from 48.1
  body weight: 52.2 kg
[3]; all patients
  weight gain: All the patients gained weight
[4]
  in vitro replication of HHV-6: inhibit in vitro replication of HIV and Human Herpes Virus 6 (HHV-6)
